Experimental data published in PubChem BioAssay AID493128 (Sanford-Burnham Center for Chemical Genomics, 2011).
Activity calls are given as the source filed them. No rule for the calls is given here.

Target: intestinal alkaline phosphatase Alpi (Mus musculus)
Assay: activation of murine Alpi phosphatase – biochemical, human IAP activator project, SAR follow-up (AID 493128)
Conditions: purified mouse IAP enzyme activity

Row | EC50 | IC50 (inhibition of IAP activity) [µM] | SMILES
1 | > 100 µM (inactive) | – | CC(=O)Nc1cccc(C(=O)NNC(=O)c2n[nH]c(=O)c3ccccc23)c1
2 | > 100 µM (inactive) | – | COc1cccc(C=NNC(=O)C(=O)NN=Cc2cccc(OC)c2OC)c1OC
3 | > 100 µM (inactive) | – | CN(C)c1ccc(/C=N/NC(=O)C(=O)N/N=C/c2ccc(N(C)C)cc2)cc1
4 | > 100 µM (inactive) | – | COc1ccc(/C=N/NC(=O)C(=O)N/N=C/c2ccc(OC)c(OC)c2)cc1OC
5 | > 100 µM (inactive) | – | CC(=NNC(=O)C(=O)NN=C(C)c1cccc(O)c1)c1cccc(O)c1
6 | > 100 µM (inactive) | – | COc1cccc(C=NNC(=O)C(=O)NN=Cc2cccc(OC)c2O)c1O
7 | > 100 µM (inactive) | – | C/C(=N\NC(=O)c1cc(C)[nH]n1)c1ccc2ccccc2c1O
8 | > 100 µM (inactive) | – | O=C(N/N=C/c1ccccc1C(=O)O)C(=O)N/N=C/c1ccccc1C(=O)O
9 | > 100 µM (inactive) | – | CC(C)Oc1ccccc1/C=N/NC(=O)C(=O)N/N=C/c1ccccc1OC(C)C
10 | > 100 µM (inactive) | – | O=C(NN=Cc1ccccc1)C(=O)NN=Cc1ccccc1
11 | > 100 µM (inactive) | – | COc1ccc(OC)c(/C=N/NC(=O)C(=O)N/N=C/c2cc(OC)ccc2OC)c1
12 | > 100 µM (inactive) | – | O=C(NNC(=S)NC(=O)c1ccccc1[N+](=O)[O-])c1ccccc1O
13 | > 100 µM (inactive) | – | CCN(CC)c1ccc(/C=N/NC(=O)C(=O)N/N=C/c2ccc(N(CC)CC)cc2O)c(O)c1
14 | > 100 µM (inactive) | – | N#CCOc1ccccc1/C=N/NC(=O)C(=O)N/N=C/c1ccccc1OCC#N
15 | > 100 µM (inactive) | – | O=C(NC(=S)NNC(=O)c1ccccc1O)c1ccc(F)cc1
16 | > 100 µM (inactive) | – | O=C(N/N=C/c1c(O)ccc2ccccc12)C(=O)N/N=C/c1c(O)ccc2ccccc12
17 | > 100 µM (inactive) | – | O=C(N/N=C\c1cccc(O)c1)C(=O)N/N=C/c1cccc(O)c1
18 | > 100 µM (inactive) | – | COC(=O)c1ccc(/C=N/NC(=O)C(=O)N/N=C/c2ccc(C(=O)OC)cc2)cc1
19 | > 100 µM (inactive) | – | COc1cc(/C=N/NC(=O)C(=O)N/N=C/c2ccc(O)c(OC)c2)ccc1O
20 | > 100 µM (inactive) | – | CCOc1cc(/C=N/NC(=O)C(=O)N/N=C/c2ccc(O)c(OCC)c2)ccc1O
21 | > 100 µM (inactive) | – | CC(=O)Nc1ccc(/C=N/NC(=O)C(=O)N/N=C/c2ccc(NC(C)=O)cc2)cc1
22 | > 100 µM (inactive) | – | O=C(N/N=C/c1cc(Br)ccc1O)C(=O)N/N=C/c1cc(Br)ccc1O
23 | > 100 µM (inactive) | – | C/C(=N\NC(=O)c1[nH]nc2c1CCc1ccccc1-2)c1ccccc1O
24 | > 100 µM (inactive) | – | O=C(N/N=C/c1ccc(O)cc1)C(=O)N/N=C/c1ccc(O)cc1
25 | > 100 µM (inactive) | – | O=C(NN=Cc1ccc(O)cc1O)C(=O)NN=Cc1ccc(O)cc1O

Second part, the compound before the results:

Row | SMILES | EC50 | IC50 (inhibition of IAP activity) [µM]
26 | Cc1ccc(O)c(C=NNC(=O)c2[nH]ncc2Br)c1 | > 100 µM (inactive) | –
27 | O=C(N/N=C/c1ccc2c(c1)OCO2)C(=O)N/N=C/c1ccc2c(c1)OCO2 | > 100 µM (inactive) | –
28 | COc1ccc(-c2cc(C(=O)NN=Cc3c(O)ccc4ccccc34)[nH]n2)cc1 | > 100 µM (inactive) | –
29 | O=C(N/N=C/c1ccccc1O)c1cc(C2CC2)[nH]n1 | > 100 µM (inactive) | –
30 | COc1cc(/C=N/NC(=O)C(=O)N/N=C/c2cc(OC)c(OC)c(OC)c2)cc(OC)c1OC | > 100 µM (inactive) | –
31 | COc1cccc(C=NNC(=O)c2[nH]nc3c2CCc2ccccc2-3)c1O | > 100 µM (inactive) | –
32 | CCCCOc1ccc(/C=N/NC(=O)C(=O)N/N=C/c2ccc(OCCCC)cc2)cc1 | > 100 µM (inactive) | –
33 | Cc1cc(C(=O)N/N=C\c2cc(C(C)(C)C)ccc2O)n[nH]1 | > 100 µM (inactive) | –
34 | CCOc1cccc(C=NNC(=O)c2cc(C3CC3)[nH]n2)c1O | > 100 µM (inactive) | –
35 | Cc1cc(C(=O)NN=Cc2cc(Cl)cc([N+](=O)[O-])c2O)n[nH]1 | > 100 µM (inactive) | –
36 | O=C(N/N=C/c1cc(Br)ccc1O)c1cc(C2CC2)[nH]n1 | > 100 µM (inactive) | –
37 | O=C(CCN1C(=O)/C(=C/c2ccccc2Cl)SC1=S)NNC(=O)c1ccccc1O | > 100 µM (inactive) | –
38 | OC(c1nc2ccc(F)cc2[nH]1)C(O)c1nc2ccc(F)cc2[nH]1 (stereo unspecified) | > 100 µM (inactive) | –
39 | COc1cccc(C=NNC(=O)C2=NNC(=O)C2C)c1O (stereo unspecified) | > 100 µM (inactive) | –
40 | COc1ccc(-c2csc(Nc3cccc4ccccc34)n2)cc1F | > 100 µM (inactive) | –
41 | O=C(NN=Cc1c(O)ccc2ccccc12)c1[nH]ncc1Br | > 100 µM (inactive) | –

Row | SMILES | EC50 | IC50 (inhibition of IAP activity) [µM]
42 | O=C(N/N=C/c1c(O)ccc2ccccc12)c1cc(-c2cccs2)[nH]n1 | > 100 µM (inactive) | –
43 | COc1cc(/C=N\NC(=O)C(=O)N/N=C/c2cc(OC)c(O)c(OC)c2)cc(OC)c1O | > 100 µM (inactive) | –
44 | COc1cc(OC)c(OC)cc1/C=N/NC(=O)C(=O)N/N=C/c1cc(OC)c(OC)cc1OC | > 100 µM (inactive) | –
45 | Cn1cccc1-c1cc(C(=O)NN=Cc2cc(Br)ccc2O)[nH]n1 | > 100 µM (inactive) | –
46 | O=C(N/N=C\c1ccc2c(c1)OCO2)C(=O)N/N=C/c1ccc2c(c1)OCO2 | > 100 µM (inactive) | –
47 | COc1cccc(C=NNC(=O)c2cc(-c3cccn3C)n[nH]2)c1O | > 100 µM (inactive) | –
48 | CC(C)C(=O)NC(=S)Nc1ccccc1C(=O)Nc1ccccc1 | > 100 µM (inactive) | –
49 | CC1C(=O)NN=C1C(=O)NN=Cc1ccc(O)cc1O (stereo unspecified) | > 100 µM (inactive) | –
50 | Cc1cc(C(=O)N/N=C/c2cc(Br)ccc2O)n[nH]1 | > 100 µM (inactive) | –
51 | Cc1ccc(-c2cc(C(=O)NN=Cc3ccccc3O)n[nH]2)o1 | > 100 µM (inactive) | –
52 | Cc1cc(C(=O)NN=Cc2cccc([N+](=O)[O-])c2O)n[nH]1 | > 100 µM (inactive) | –
53 | O=C1Nc2ccc(Br)cc2C12NNc1ccccc1O2 (stereo unspecified) | – | 0.382
54 | CCOc1cccc(C=NNC(=O)c2cc(-c3cccn3C)n[nH]2)c1O | > 100 µM (inactive) | –
55 | O=C(N/N=C/c1ccccc1O)c1n[nH]c2c1CCC2 | > 100 µM (inactive) | –
56 | COc1cc(OC)cc(C(=O)NNC(=O)c2nn(C)c(=O)c3ccccc23)c1 | > 100 µM (inactive) | –
